For 7 compounds, IC50, MIC and Activity results are on record in ChEMBL document CHEMBL4402528, “Multi-target drugs active against leishmaniasis: A paradigm of drug repurposing” (Eur J Med Chem, 2019).

SMILES strings stand for the structures. ≈ marks a conversion by molar mass, not a printed value.

The IC50 is the concentration needed to halve the response being measured. As a reminder, the MIC is the lowest concentration that inhibits growth of the organism.

Assay [1] deals with Leishmania mexicana. The assay is described as follows: Antileishmanial activity against Leishmania mexicana intracellular amastigotes infected in J774 macrophages assessed as reduction in parasite viability after 72 hrs. The conditions noted are these: J774, 72 h. In kind it is functional, organism-based.
For assay [2], the system named is Candida albicans. The assay is described as follows: Antifungal activity against Candida albicans assessed as reduction in viability after 24 hrs by broth microdilution assay. In kind it is functional. (In general: Dilution methods test growth across graded concentrations, often in twofold steps.)
For assay [3], the system named is Leishmania amazonensis. The assay is described as follows: Antileishmanial activity against Leishmania amazonensis MHOM/BR/75/Josefa promastigotes assessed as reduction in parasite viability after 72 hrs by Neubauer chamber counting method. The format is functional, organism-based.
The test system of assay [4] is Leishmania amazonensis. The assay is described as follows: Antileishmanial activity against Leishmania amazonensis MHOM/BR/75/Josefa intracellular amastigotes infected in CF-1 macrophages assessed as reduction in parasite viability after 72 hrs by optical microscopic method. The format is functional, organism-based.
The subject of assay [5] is Leishmania amazonensis. The assay can be described thus: Antileishmanial activity against Leishmania amazonensis MHOM/BR/77/LTB 0016 intracellular amastigotes infected in BALB/c Peritoneal macrophages assessed as reduction in parasite viability after 72 hrs by light microscopic method. In kind it is functional, organism-based. The conditions noted are these: MHOM/BR/77/LTB 0016, 72 h.

The test system of assay [6] is Leishmania amazonensis. The assay can be described thus: Antileishmanial activity against Leishmania amazonensis MHOM/BR/77/LTB 0016 promastigotes assessed as reduction in parasite viability after 72 hrs by MTT assay. The format is functional, organism-based. The conditions noted are these: MHOM/BR/77/LTB 0016, 72 h.
Assay [7] concerns Leishmania donovani. The assay can be described thus: Antileishmanial activity against Leishmania donovani LCR-133 promastigotes assessed as reduction in RNA synthesis at 95 uM preincubated for 30 mins followed by addition of 5-[3H]-uridine and measured up to 145 mins by liquid scintillation counting method relative o control. In kind it is functional. Also on record: scale not given: the % may be the effect or the level left.

Assay [8] deals with Leishmania amazonensis. The assay is described as follows: Antileishmanial activity against Leishmania amazonensis promastigotes assessed as reduction in parasite viability after 72 hrs by CCK-8 assay. In kind it is functional, organism-based.

Regarding `CC(C)=CCC/C(C)=C/CNCCNC1C2CC3CC(C2)CC1C3` (centres undefined) [SQ109], the IC50 in assay [1] came to 11 nM. With `C[C@@H]1C[C@@H](C)/C=C/C=C/C=C/C=C/C=C/C=C/C=C/[C@H](O[C@@H]2O[C@H](C)[C@@H](O)[C@H](N)[C@@H]2O)C[C@@H]2O[C@](O)(C[C@@H](O)C[C@@H](O)[C@H](O)CC[C@@H](O)C[C@@H](O)CC(=O)O[C@H]1C)C[C@H](O)[C@H]2C(=O)O`, the MIC in assay [2] turned out to be 4 µM (≈ 3.63 µg/mL). With `CCC(C)n1ncn(-c2ccc(N3CCN(c4ccc(OCC5COC(Cn6cncn6)(c6ccc(Cl)cc6Cl)O5)cc4)CC3)cc2)c1=O` (centres undefined) [ITRACONAZOLE], the 50% inhibitory concentration (IC50) in assay [3] is 440 nM; in assay [4], 80 nM.

For the compound `CC(=O)N1CCN(c2ccc(OCC3COC(Cn4ccnc4)(c4ccc(Cl)cc4Cl)O3)cc2)CC1` (centres undefined) [KETOCONAZOLE], the IC50 in assay [5] came to 6800 nM; in assay [6], 2700 nM.

Turning to `CCCCCCCCCCCCCCCCOP(=O)([O-])OCC[N+](C)(C)C` [MILTEFOSINE], the Activity in assay [7] stood at 96.32%. As for `OC(Cn1cncn1)(Cn1cncn1)c1ccc(F)cc1F` [FLUCONAZOLE], the IC50 in assay [8] stood at 10100 nM. For the compound `C[C@@H]1[C@H](O)[C@@H](C)/C=C/C=C/C=C/C=C/C=C/C=C/C=C/[C@H](O[C@@H]2O[C@H](C)[C@@H](O)[C@H](N)[C@@H]2O)C[C@@H]2O[C@](O)(C[C@@H](O)C[C@@H](O)[C@H](O)CC[C@@H](O)C[C@@H](O)CC(=O)O[C@H]1C)C[C@H](O)[C@H]2C(=O)O` [AMPHOTERICIN B], in assay [2], the minimum inhibitory concentration (MIC) amounted to 0.25 µM (≈ 0.231 µg/mL).
